Measurements taken from patent US8748108B2, “Biomarkers for identifying patient classes” (AbbVie Inc., priority 2006, dated 2014).
Entries after “also recorded” stand apart in the source; their conditions may differ.

Columns and labels:
[1] = system: circulating tumor cells (CTC); assay: phase 2 study, circulating tumor cell number (CellSearch); format: in vivo, human
Procedure: Blood specimens for analyzing circulating tumor cells (CTC) were collected at screening, on day 14 of cycles 1 and 2, and at final study visit (for US patients only). […] Samples enriched for CTC are removed from the Veridex cartridge after the imaging and enumeration, washed 1× in PBS, pelleted then resuspended in 100 μL PBS and dropped onto a positively charged slide (Biogenex, San Ramon, Calif.) and dried. The slides are then rinsed in H2O prior to imaging using the Carl Zeiss (Germany) or Bioview imaging systems (Tel Aviv, Israel), the CTC are identified and the locations recorded. […] The slides are then returned to the Zeiss or Bioview imaging systems and the previously identified CTC are assessed for DNA copy number.
To further evaluate this association, we assessed plasma Pro-GRP, and BCL2 copy number by FISH in CTC from patients on this study (n=10).

[2] = phase 2 study, safety / study discontinuation; format: in vivo, human; conditions: phase 2, 39 patients
Procedure: Safety assessments included history and physical examinations, vital signs, ECOG performance status, AEs, blood chemistry and complete blood counts with differential. Safety assessments were performed at screening, weekly during cycle 1, and at the start of subsequent cycles. Adverse event severity was graded according to the National Cancer Institute Common Terminology Criteria for Adverse Events (NCI CTCAE), version 3.0 (Common Terminology Criteria for Adverse Events. Version 3.0. Available at NCI website for the cancer therapy evaluation program (CTEP). Relationships of adverse events to navitoclax (definitely, probably, possibly, unlikely, or unrelated) were assessed by the Principal Investigator at each site.
A total of 39 patients participated in the phase 2 study. The majority of patients were of performance status 1. The median number of prior therapeutic regimens was 2 (range 1-6). All patients were started at the planned dose and schedule, including dose escalation to 325 mg in week 2. The primary reasons for study discontinuation included disease progression (N=26, 67%) and AEs (N=11, 28%). The median number of treatment cycles was 2 (range, 1-11) and the median treatment duration was 1.3 months (range, 0.2-7.3).

[3] = phase I study, pharmacokinetics; format: in vivo; conditions: human, plasma; phase 1, patients, oral
M30 [4] = assay: phase I study, serum M30 (caspase-cleaved CK18); format: in vivo, human
Procedure: (§1) Blood samples for circulating tumor cells (CTCs) were collected at screening, C1D14, C2D14, and at the end of study treatment. Samples for the plasma marker Pro-GRP were collected at screening, C1D14, C2D14, and at the end of study. Samples for serum marker M30 were collected at screening, pre-dose, 6 and 24 hours post-dose on C1D-3 (for 14/21 day dosing) or lead-in day 2 for 21/21 day dosing). Samples were also collected on C1D14; pre-dose and 6 hours post-dose on C2D1; C2D14; end of cycle 4; and every 3rd cycle thereafter and at the final visit for all subjects.
(§2) The CTC were analyzed via the CellSearch system (Veridex, Raritan, N.J.). […] Pro-GRP was measured using ARCHITECT ELISA kits (Abbott Diagnostics, Abbott Park, Ill.). Serum samples were analyzed for M30 and M65 (Peviva) using previously described assays validated to good clinical laboratory practice (Cummings J, Ward T H, LaCasse E, et al: Validation of pharmacodynamic assays to evaluate the clinical efficacy of an antisense compound (AEG 35156) targeted to the X-linked inhibitor of apoptosis protein XIAP. Br J Cancer 92:532-8, 2005; and Cummings J, Ranson M, Lacasse E, et al: Method validation and preliminary qualification of pharmacodynamic biomarkers employed to evaluate the clinical efficacy of an antisense compound (AEG35156) targeted to the X-linked inhibitor of apoptosis protein XIAP. […]

[5] = system: relapsed or refractory SCLC and other solid tumors; assay: phase I dose-escalation study, tumor response (RECIST); format: in vivo, human
Excerpt: (§3) This example illustrates a phase I dose-escalation study to evaluate the safety, pharmacokinetics, and preliminary efficacy of navitoclax in subjects with relapsed or refractory SCLC and other solid tumors. This phase I study of navitoclax, a novel inhibitor of Bcl-2 family proteins, was designed to evaluate safety, pharmacokinetics, and preliminary efficacy in subjects with small cell lung cancer (SCLC) or other solid tumors.
(§4) Subjects enrolled to intermittent dosing cohorts received navitoclax on Days 1-14 followed by 7 days off. Subjects on continuous dosing cohorts received a one week lead-in dose of 150 mg followed by continuous daily administration of navitoclax. Blood samples were collected for pharmacokinetic analyses, biomarker analyses, and platelet monitoring.
Subjects included histologically documented SCLC or other non-hematologic malignancies, age ≧18, Eastern Cooperative Oncology Group performance status (ECOG PS) of ≦2, measurable disease by Response Evaluation Criteria in Solid Tumors (RECIST 1.0), and had received at least one prior chemotherapy treatment with documented progression. Subjects with brain metastases were included if they had surgery and/or radiation therapy followed by 21 days of stable neurologic function and stable disease by imaging prior to the first dose of study drug. Additional inclusion criteria included adequate bone marrow, renal and hepatic function per local laboratory reference range, non-pregnant status, and a life expectancy of ≧90 days.
(§5) Subjects were evaluated with history, physical exam, vital signs, complete blood count, chemistries, urinalysis and ECOG PS weekly through C2 and on D1 of each subsequent cycle. ECG and 2D-ECHO were obtained on C1D-3, C1D14, C3D1, C3D14, and end of study. Platelet counts were obtained on D-3 through 14 of C1, and weekly through each subsequent cycle. Lymphocyte enumeration was performed at screening, C1D14, at the end of C4, and at the end of every 3rd cycle thereafter. Radiographic tumor assessments were performed at baseline, after the 2nd and 4th cycles and after every 3 cycles thereafter.

pro-GRP = assay: phase I study, plasma pro-GRP (ARCHITECT ELISA); format: in vivo, human; conditions: with increasing dose
Procedure: as §1, §2

M30 [6] = assay: phase 2 study, M30 ELISA assay in patient serum; format: in vivo, human
Procedure: Serum and plasma samples collected at the same intervals were stored at −70° C. or colder until analyzed for quantitative assessment of tumor markers. CYFRA 21-1 and Pro-GRP were measured using the automated [sequence] ELISA kits (Abbott Diagnostics, Abbott Park, Ill.) and NSE was measured in plasma using automated electrochemoluminescent assays on Elecsys 2010 (Roche Diagnostics, Germany). Serum samples were analyzed for M30 and M65 (Peviva AB, Sweden) using previously described assays validated to good clinical laboratory practice (see, Cummings J., et al., Br J Cancer 92:532-8, 2005; and Cummings J., et al., Br J Cancer 95:42-8, 2006).
This assay measures the release of caspase-cleaved cytokeratin 18 following apoptotic cell death.

[7] = phase I dose-escalation study, safety; format: in vivo, human
Excerpt: as §3, §4
as §5, with “cycles thereafter. […]” for “cycles thereafter.”

[8] = system: relapsed or refractory SCLC; assay: phase 2 study, efficacy (RECIST, PFS, OS); format: in vivo, human
Excerpt: Eligible candidates for the phase 2 portion of this study (NCT00445198) were adults with histologically or cytologically confirmed SCLC, extensive stage, with progressive disease after at least one prior chemotherapy regimen (any number of prior therapies were allowed). […] Patients were excluded if they had underlying or predisposing condition of bleeding (history of non-chemotherapy induced thrombocytopenia with bleeding within 1 year, active peptic ulcer or hemorrhagic esophagitis/gastritis, active immune thrombocytopenic purpura, etc.). This study was conducted according to the Declaration of Helsinki and with approval from Institutional Review Boards of all participating study sites. All participants provided written informed consent before participating. The phase 2 component of this clinical trial was an open-label, single arm study of patients with recurrent and progressive SCLC after at least one prior therapy. Based on the dose and schedule determined in phase 1 (Example 3), patients were treated with navitoclax 150 mg daily for 1 week, and 325 mg daily thereafter. Cycle duration was defined as 21 days. Subjects could remain on therapy indefinitely, until disease progression or intolerable toxicity. […] New guidelines to evaluate the response to treatment in solid tumors. European Organization for Research and Treatment of Cancer, National Cancer Institute of the United States, National Cancer Institute of Canada. […] Additional efficacy variables included PFS and OS. All subjects enrolled were included in the analyses. Descriptive statistics were used to summarize demographic variables. Progression free survival and overall survival were computed using Kaplan-Meier methodology and 95% confidence intervals were provided. Progression free survival (PFS) was defined as the number of days from the date the subject started the study drug to the date the subject experienced an event of disease progression, or if progression was not experienced, then the date of death if the death occurred within 42 days (length of time between tumor assessments). Overall survival (OS) was defined as the number of days from the date the subject started the study drug to the date of the subject's death. […] Correlations between median BCL2 copy number and pro-GRP were performed by the Pearson correlation; M30 and CTC change from baseline comparisons among Pro-GRP groups were performed by one-way ANOVA using the JMP 8.0 statistical software. Optimized thresholds for the tumor markers were obtained using BATTing (Bootstrapping and Aggregating Thresholds from Trees) method (See, […]., Bagging Predictors. Machine Learning 26:123-140, 1996, fully incorporated herein by reference). Briefly, BATTing uses a tree-based model for threshold estimation. However, a single tree may be unstable and not robust enough against small perturbations in the distribution of the data. In addition, single tree-based models are known be prone to overfitting (that is, it is over-specified for training data) and have poor prediction power. Those issues are addressed in BATTing by aggregating the thresholds from multiple trees to get a more robust estimate. Each tree is built using a bootstrap random sample drawn from the original population and provides its own cutoff. The final estimate of the threshold is calculated as the median from the distribution of cutoffs generated from the multiple trees. This procedure was implemented using the R statistical software (available online from the R project). Several exploratory correlative biomarkers were included in this study, including both CTC enumeration and plasma protein markers associated with small cell lung cancer. The biomarker analysis included all phase II patients and, to increase the sample size, patients with SCLC and those dosed with >325 mg navitoclax on the phase I portion of this study were also included in the analysis. […]

recurrent SCLC = recurrent SCLC patients; cited from earlier work
[9] = 47 enrolled, 38 evaluable for response
[10] = baseline CYFRA 21.1 above 2.3 ng/ml
[11] = baseline CYFRA 21.1 below 2.3 ng/ml

CC1(C)CCC(c2ccc(Cl)cc2)=C(CN2CCN(c3ccc(C(=O)NS(=O)(=O)c4ccc(NC(CCN5CCOCC5)CSc5ccccc5)c(S(=O)(=O)C(F)(F)F)c4)cc3)CC2)C1 (stereo in doubt) [navitoclax, N-(4-(4-(2-(4-chlorophenyl)-5,5-dimethyl-1-cyclohex-1-en-1-yl)methyl)pip-erazin-1-yl)benzoyl)-4-(((1R)-3-(morpholin-4-yl)-1-((phenylsulfanyl)methyl)propyl)amino)-3-((trifluoromethyl)sulfonyl)benzenesulfonamide]
median CTC number ([1]; better prognosis patients, high pro-GRP group, baseline to day 14): 91 % of baseline
median CTC number ([1]; better prognosis patients, low pro-GRP group, baseline to day 14): 349 % of baseline
median CTC number ([1]; total population, high pro-GRP group n=12): 186 % of baseline
median CTC number ([1]; total population, low pro-GRP group n=8): 518 % of baseline
study discontinuation due to AEs [2]: 28%
half-life [3]: ~15 h
time of rise in M30 following the first dose (M30 [4]; in most instances): ≤ 6 h
circulating M30 (M30 [4]; serum, cycle 1, post first exposure): dose-dependent transient increase in circulating M30
subjects with partial response [5, 9]: One
subjects with stable disease [5, 9]: 7
duration of partial response ([5]; one subject, remains on study): over 26 months
Pro-GRP levels overall (pro-GRP): declined or stabilized with increasing navitoclax dose
M30 concentrations (M30 [6]; better prognosis patients, high Pro-GRP group (above 600 pg/mL)): 205%
M30 concentrations (M30 [6]; better prognosis patients, low Pro-GRP group (below 600 pg/mL)): 116%
M30 concentrations (M30 [6]; total population, high Pro-GRP group n=19): 212%
M30 concentrations (M30 [6]; total population, low Pro-GRP n=13): 109%
recommended phase 2 dose ([7]; from exploration of doses and schedules in phase I): 325 mg daily
toxicities / tolerability ([7]; phase I, intermittent and continuous dosing cohorts): dose and schedule-dependent thrombocytopenia, diarrhea, nausea, and fatigue; also recorded: safe, well-tolerated, with dose-dependent thrombocytopenia as the major side effect; also recorded: rapid and dose-dependent thrombocytopenia
Median OS Above threshold ([8]; baseline CTC above 12/7.5 ml): 67 (17) D
Median PFS Above threshold ([8]; baseline CTC above 12/7.5 ml): 46 (15) D
Median PFS Below threshold ([8]; baseline CTC below 12/7.5 ml): 63 (14) D
Median OS Above threshold [8, 10]: 67 (19) D
Median PFS Above threshold [8, 10]: 44 (19) D
Median OS Below threshold [8, 11]: 242 (20) D
Median PFS Below threshold [8, 11]: 53 (20) D
Median OS Above threshold ([8]; baseline NSE above 15 ng/ml): 72 (24) D
Median PFS Above threshold ([8]; baseline NSE above 15 ng/ml): 44 (24) D
Median OS Below threshold ([8]; baseline NSE below 15 ng/ml): 242 (15) D
Median PFS Below threshold ([8]; baseline NSE below 15 ng/ml): 55 (15) D
median OS ([8]; patients above thresholds for both NSE and CYFRA (poor prognosis), n=15): 61 days
median PFS ([8]; patients above thresholds for both NSE and CYFRA (poor prognosis), n=16): 41 days
median OS ([8]; patients not above both NSE and CYFRA thresholds, n=18): 242 days
median PFS ([8]; patients not above both NSE and CYFRA thresholds, n=23): 55 days
Median progression-free survival (PFS) ([8]; phase 2, 39 patients): 1.5 months
best response of disease progression (PD) ([8]; phase 2, 39 patients): 41%
confirmed partial response (PR) ([8]; phase 2, 39 patients): 2.6%
inevaluable for response ([8]; phase 2, 39 patients): 33.3%
median overall survival (OS) ([8]; phase 2, 39 patients): 3.2 months
stable disease (SD) as best response ([8]; phase 2, 39 patients): 23.1%
Best response PD, N (%) ([8]; phase 2, N = 39): 16 (41.0) N (%)
Best response PR, N (%) ([8]; phase 2, N = 39): 1 (2.6) N (%)
Best response SD, N (%) ([8]; phase 2, N = 39): 9 (23.1) N (%)
Median OS, mo (95% CI) ([8]; phase 2, N = 39): 3.2 (2.3, 8.1) mo
ORR, % (95% CI) ([8]; phase 2, N = 39): 2.6 (0.1, 13.5) %
Median PFS, mo (95% CI) ([8]; phase 2, N = 39, 150 mg daily 1 week then 325 mg daily): 1.5 (1.4, 1.7) mo
Best response inevaluable, N (%) ([8]; phase 2, N = 39, baseline tumor data only): 13 (33.3) N (%)

CC[C@@]1(O)C(=O)OCc2c1cc1n(c2=O)Cc2cc3c(CN(C)C)c(O)ccc3nc2-1 [topotecan]
response rate (recurrent SCLC): 2-6%
